In ChEMBL document CHEMBL1201862, “PubChem BioAssay data set” (2004):
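1) Cells in 96-well plates. 2) Compound, 48 h, 5 concentrations. 3) Linear interpolation between surrounding doses. 4) Unreached endpoint = highest concentration. The concentration for 50% growth inhibition is given as GI50.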 The source made the active and inactive calls. No stated cut-off is given here; in the data, active = GI50 up to about 1.1 µM and inactive = higher.

Columns and labels:
Test in all cases: DTP human tumour cell line panel, 48 h
[1] = test system: A549
[2] = test system: CAKI-1
[3] = test system: CCRF-CEM
[4] = test system: HL-60
[5] = test system: LOX IMVI
[6] = test system: MDA-N
[7] = test system: Malme-3M
[8] = test system: NCI-H23
[9] = test system: OVCAR-4
[10] = test system: OVCAR-5
[11] = test system: SF-268
[12] = test system: SF-539
[13] = test system: SK-MEL-2
[14] = test system: SK-MEL-5
[15] = test system: SK-OV-3
[16] = test system: SNB-75
[17] = test system: T47D
[18] = test system: UO-31
[19] = test system: A498
[20] = test system: NCI-H522

Row | SMILES | GI50 [1] | GI50 [2] | GI50 [3] | GI50 [4] | GI50 [5] | GI50 [6] | GI50 [7] | GI50 [8] | GI50 [9] | GI50 [10] | GI50 [11] | GI50 [12] | GI50 [13] | GI50 [14] | GI50 [15] | GI50 [16] | GI50 [17] | GI50 [18] | GI50 [19] | GI50 [20]
1 | c1ccc2c(c1)c1c(n2CCOCCN2CCCC2)CCCC1 | 28.1 µM (inactive) | 27.2 µM (inactive) | 20.9 µM (inactive) | 12.2 µM (inactive) | 18.5 µM (inactive) | 19.4 µM (inactive) | 17.1 µM (inactive) | 22.6 µM (inactive) | 16.8 µM (inactive) | 17.8 µM (inactive) | 29 µM (inactive) | 14.5 µM (inactive) | 16.4 µM (inactive) | 15.2 µM (inactive) | 31.3 µM (inactive) | 27.3 µM (inactive) | 28.7 µM (inactive) | 12.8 µM (inactive) | – | –
2 | C=C(C)[C@H]1CC(=O)/C(C)=C\CC/C(C)=C/CC[C@@]2(C)O[C@@H]2C1 | 15.8 µM (inactive) | 1.99 µM (inactive) | 35.1 µM (inactive) | 27.5 µM (inactive) | 10.9 µM (inactive) | 35.2 µM (inactive) | 36.8 µM (inactive) | 22.3 µM (inactive) | 22 µM (inactive) | 35.4 µM (inactive) | 23 µM (inactive) | 20 µM (inactive) | 35.8 µM (inactive) | 23.7 µM (inactive) | 24.4 µM (inactive) | 41.4 µM (inactive) | – | 20.7 µM (inactive) | > 100 µM (inactive) | –
3 | Cc1cc2nc3c(C#N)c(-c4ccccc4)cc(Nc4ccc(F)cc4)n3c2cc1C | – | 29.9 µM (inactive) | – | – | 13.4 µM (inactive) | – | 21.5 µM (inactive) | 13.4 µM (inactive) | 53.6 µM (inactive) | 15.6 µM (inactive) | 10.5 µM (inactive) | 18.6 µM (inactive) | – | 16 µM (inactive) | 16.7 µM (inactive) | 15.9 µM (inactive) | > 100 µM (inactive) | – | 22.1 µM (inactive) | 4.33 µM (inactive)
4 | Cc1nn2c(=O)n(-c3cccc(-n4nnc5c(-c6ccccc6)c(C)nn5c4=O)c3C)nnc2c1-c1ccccc1 | 33.3 µM (inactive) | 39.4 µM (inactive) | 19.9 µM (inactive) | 18.2 µM (inactive) | 27.7 µM (inactive) | – | 14.2 µM (inactive) | 98.4 µM (inactive) | 15.6 µM (inactive) | > 100 µM (inactive) | 46 µM (inactive) | 24.4 µM (inactive) | 3.33 µM (inactive) | 16.6 µM (inactive) | > 100 µM (inactive) | 37.4 µM (inactive) | – | 8.91 µM (inactive) | 83.6 µM (inactive) | 15.5 µM (inactive)
5 | OC(c1cccnc1)C(F)(F)c1nc2ccccc2o1 (centres undefined) | – | > 100 µM (inactive) | > 100 µM (inactive) | > 100 µM (inactive) | > 100 µM (inactive) | – | – | > 100 µM (inactive) | > 100 µM (inactive) | – | > 100 µM (inactive) | > 100 µM (inactive) | > 100 µM (inactive) | > 100 µM (inactive) | – | > 100 µM (inactive) | > 100 µM (inactive) | > 100 µM (inactive) | 49.9 µM (inactive) | –
6 | CC1(C)O[C@@H](CO)[C@H]([C@@]23OC[C@H]4OC(C)(C)OC4[C@@H]2OC(C)(C)O3)O1 (some centres undefined) | > 100 µM (inactive) | – | – | > 100 µM (inactive) | > 100 µM (inactive) | > 100 µM (inactive) | > 100 µM (inactive) | > 100 µM (inactive) | > 100 µM (inactive) | > 100 µM (inactive) | > 100 µM (inactive) | – | > 100 µM (inactive) | 20.3 µM (inactive) | > 100 µM (inactive) | > 100 µM (inactive) | > 100 µM (inactive) | > 100 µM (inactive) | – | > 100 µM (inactive)
7 | [O-][n+]1ccccc1Sc1nc(Sc2cccc[n+]2[O-])nc(Sc2cccc[n+]2[O-])n1 | 2.99 µM (inactive) | 0.9 µM (active) | 0.198 µM (active) | 0.1 µM (active) | 0.92 µM (active) | – | 1.95 µM (inactive) | 1.36 µM (inactive) | 1.59 µM (inactive) | 1.7 µM (inactive) | 2.99 µM (inactive) | 2.06 µM (inactive) | 1.8 µM (inactive) | 1.31 µM (inactive) | 7.24 µM (inactive) | 4.2 µM (inactive) | 2.03 µM (inactive) | 1.77 µM (inactive) | 2.82 µM (inactive) | 0.745 µM (active)
8 | CNC(=O)C1CCCN1C(=O)C(Cc1c[nH]cn1)NC(=O)C1CCC(=O)N1 (centres undefined) | > 100 µM (inactive) | > 100 µM (inactive) | > 100 µM (inactive) | > 100 µM (inactive) | > 100 µM (inactive) | > 100 µM (inactive) | > 100 µM (inactive) | > 100 µM (inactive) | > 100 µM (inactive) | > 100 µM (inactive) | > 100 µM (inactive) | – | – | > 100 µM (inactive) | > 100 µM (inactive) | > 100 µM (inactive) | > 100 µM (inactive) | > 100 µM (inactive) | – | > 100 µM (inactive)
